{"source": "patent US20240082194A1", "about": "“PREVENTIVE OR THERAPEUTIC AGENT FOR INFLAMMATORY DISORDERS AND/OR PAIN DISORDERS” (Kyowa Pharma Chemical Co., Ltd., priority 2021, published 2024)", "tested_on": "adjuvant arthritis model rats", "assay": "Rat adjuvant arthritis model: left hind limb (non-sensitized limb) volume", "format": "in vivo, rat (male LEW rats)", "settings": "for Left hind limb volume, Mean: group mean n=5; for Left hind limb volume: individual animals", "method": "Required amounts of GSSSG and indomethacin were weighed with an electronic balance, each ground well with a mortar, added to a solvent (0.5% methyl cellulose (MC) suspension), and suspended. The administration solution of GSSSG alone was prepared to have a concentration of 21.2 mg/mL (20 mg/mL on an anhydrous basis), and the administration solution of indomethacin alone was prepared to have a concentration of 0.06 mg/mL or 0.6 mg/mL. A combined administration solution was prepared by mixing a suspension prepared with GSSSG at 42.4 mg/mL (40 mg/mL on an anhydrous basis) with 0.12 mg/mL and 1.2 mg/mL indomethacin suspensions in equal amounts. The administration solution was prepared for 2 weeks at a time and stored under refrigeration and light shielding conditions until administration.\nAn appropriate amount of killed Mycobacterium tuberculosis (M. Tuberculosis H37Ra; BD) was ground in a mortar, and liquid paraffin was added thereto to prepare an adjuvant to 5 mg/mL. As experimental animals, 6-week-old male LEW rats were used. General condition observation and weight measurement were carried out upon arrival, and the presence or absence of abnormalities was confirmed.\nThe acclimation period was set to 7 days, and the general condition was observed once a day. On the last day of the acclimation period, left hind limb volume and body weight were measured to confirm that there were no abnormalities in body weight and general condition, and the animals were then used for a test.\nOn the last day of the acclimation period, the rats were sensitized with 50 μL of the prepared adjuvant under isoflurane inhalation anesthesia under the skin of the right hind limb plantar. In grouping, the rats were assigned to 6 groups (n=5) to ensure equal left hind limb volume and body weight.\nThe administration solution of indomethacin alone, the administration solution of GSSSG alone, and the combined administration solution were forcibly orally administered at a volume of 5 mL/kg for 14 days from the day of grouping. The dose was calculated based on the most recent body weight. The volume of the left hind limb (non-sensitized limb) was measured using a rat hind limb plantar edema volume measurement device (TK-101P; Natsume Seisakusho Co., Ltd.) on the last day of the acclimation period, the day of grouping, and twice a week after the day of grouping. The measurement was performed 5 times per rat per day, and an average value of 3 times excluding the highest and lowest values was taken as the volume.", "key": {"[1]": {"settings": "GSSSG 100 mg/kg/day oral, day 0 (before sensitization)"}, "[2]": {"settings": "GSSSG 100 mg/kg/day oral, day 9 (day of grouping, start of dosing)"}, "[3]": {"settings": "GSSSG 100 mg/kg/day oral, day 13"}, "[4]": {"settings": "GSSSG 100 mg/kg/day oral, day 16"}, "[5]": {"settings": "GSSSG 100 mg/kg/day oral, day 20"}, "[6]": {"settings": "GSSSG 100 mg/kg/day oral, day 23"}, "[7]": {"settings": "Indomethacin 0.3 mg/kg/day oral, day 0 (before sensitization)"}, "[8]": {"settings": "Indomethacin 0.3 mg/kg/day oral, day 9 (day of grouping, start of dosing)"}, "[9]": {"settings": "Indomethacin 0.3 mg/kg/day oral, day 13"}, "[10]": {"settings": "Indomethacin 0.3 mg/kg/day oral, day 16"}, "[11]": {"settings": "Indomethacin 0.3 mg/kg/day oral, day 20"}, "[12]": {"settings": "Indomethacin 0.3 mg/kg/day oral, day 23"}, "[13]": {"settings": "Indomethacin 3 mg/kg/day oral, day 0 (before sensitization)"}, "[14]": {"settings": "Indomethacin 3 mg/kg/day oral, day 9 (day of grouping, start of dosing)"}, "[15]": {"settings": "Indomethacin 3 mg/kg/day oral, day 13"}, "[16]": {"settings": "Indomethacin 3 mg/kg/day oral, day 16"}, "[17]": {"settings": "Indomethacin 3 mg/kg/day oral, day 20"}, "[18]": {"settings": "Indomethacin 3 mg/kg/day oral, day 23"}}, "note": "Values joined by “and” are separate entries in the source; they are usually repeats but may differ in a detail not shown here. Identical values can stand only once."}
{"smiles": "N[C@@H](CCC(=O)N[C@@H](CSSSC[C@H](NC(=O)CC[C@H](N)C(=O)O)C(=O)NCC(=O)O)C(=O)NCC(=O)O)C(=O)O", "note": "[GSSSG, glutathione trisulfide]", "values": [{"measurement": "Left hind limb volume, Mean", "setting": "[1]", "value": 1.31, "unit": "mL"}, {"measurement": "Left hind limb volume", "setting": "[1]", "value": "1.21 mL and 1.39 mL (2×) and 1.29 mL (2×)"}, {"measurement": "Left hind limb volume, Mean", "setting": "[2]", "value": 1.49, "unit": "mL"}, {"measurement": "Left hind limb volume", "setting": "[2]", "value": "1.29 mL and 1.52 mL and 1.58 mL (2×) and 1.51 mL"}, {"measurement": "Left hind limb volume, Mean", "setting": "[3]", "value": 1.99, "unit": "mL"}, {"measurement": "Left hind limb volume", "setting": "[3]", "value": "1.45 mL and 2.35 mL and 2.08 mL and 2.06 mL and 2.00 mL"}, {"measurement": "Left hind limb volume, Mean", "setting": "[4]", "value": 2.26, "unit": "mL"}, {"measurement": "Left hind limb volume", "setting": "[4]", "value": "1.41 mL and 2.64 mL (2×) and 2.28 mL and 2.35 mL"}, {"measurement": "Left hind limb volume, Mean", "setting": "[5]", "value": 2.39, "unit": "mL"}, {"measurement": "Left hind limb volume", "setting": "[5]", "value": "1.72 mL and 2.82 mL and 2.58 mL and 2.53 mL and 2.31 mL"}, {"measurement": "Left hind limb volume, Mean", "setting": "[6]", "value": 2.54, "unit": "mL"}, {"measurement": "Left hind limb volume", "setting": "[6]", "value": "1.67 mL and 3.22 mL and 2.77 mL and 2.69 mL and 2.34 mL"}, {"measurement": "anti-inflammatory effect", "setting": "GSSSG alone administration group (100 mg/kg oral, 14 days)", "value": "no anti-inflammatory effect was observed"}]}
{"smiles": "COc1ccc2c(c1)c(CC(=O)O)c(C)n2C(=O)c1ccc(Cl)cc1", "note": "[Indomethacin, indomethacin]", "values": [{"measurement": "Left hind limb volume, Mean", "setting": "[7]", "value": 1.32, "unit": "mL"}, {"measurement": "Left hind limb volume", "setting": "[7]", "value": "1.39 mL and 1.24 mL and 1.37 mL and 1.30 mL and 1.29 mL"}, {"measurement": "Left hind limb volume, Mean", "setting": "[8]", "value": 1.63, "unit": "mL"}, {"measurement": "Left hind limb volume", "setting": "[8]", "value": "1.47 mL and 1.41 mL and 1.74 mL (2×) and 1.79 mL"}, {"measurement": "Left hind limb volume, Mean", "setting": "[9]", "value": 1.90, "unit": "mL"}, {"measurement": "Left hind limb volume", "setting": "[9]", "value": "1.78 mL and 1.59 mL and 2.17 mL and 1.98 mL and 1.99 mL"}, {"measurement": "Left hind limb volume, Mean", "setting": "[10]", "value": 1.88, "unit": "mL"}, {"measurement": "Left hind limb volume", "setting": "[10]", "value": "1.74 mL and 1.62 mL and 2.19 mL and 1.95 mL and 1.91 mL"}, {"measurement": "Left hind limb volume, Mean", "setting": "[11]", "value": 1.92, "unit": "mL"}, {"measurement": "Left hind limb volume", "setting": "[11]", "value": "1.71 mL and 1.60 mL and 2.09 mL and 2.06 mL and 2.12 mL"}, {"measurement": "Left hind limb volume, Mean", "setting": "[12]", "value": 1.94, "unit": "mL"}, {"measurement": "Left hind limb volume", "setting": "[12]", "value": "1.69 mL and 1.65 mL and 1.98 mL and 2.20 mL and 2.18 mL"}, {"measurement": "Left hind limb volume, Mean", "setting": "[13]", "value": 1.33, "unit": "mL"}, {"measurement": "Left hind limb volume", "setting": "[13]", "value": "1.17 mL and 1.40 mL and 1.37 mL and 1.32 mL and 1.38 mL"}, {"measurement": "Left hind limb volume, Mean", "setting": "[14]", "value": 1.52, "unit": "mL"}, {"measurement": "Left hind limb volume", "setting": "[14]", "value": "1.36 mL and 1.49 mL (2×) and 1.71 mL and 1.55 mL"}, {"measurement": "Left hind limb volume, Mean", "setting": "[15]", "value": 1.63, "unit": "mL"}, {"measurement": "Left hind limb volume", "setting": "[15]", "value": "1.39 mL and 1.68 mL (2×) and 1.69 mL (2×)"}, {"measurement": "Left hind limb volume, Mean", "setting": "[16]", "value": 1.55, "unit": "mL"}, {"measurement": "Left hind limb volume", "setting": "[16]", "value": "1.36 mL and 1.60 mL (2×) and 1.58 mL and 1.62 mL"}, {"measurement": "Left hind limb volume, Mean", "setting": "[17]", "value": 1.52, "unit": "mL"}, {"measurement": "Left hind limb volume", "setting": "[17]", "value": "1.32 mL and 1.60 mL and 1.61 mL and 1.51 mL and 1.59 mL"}, {"measurement": "Left hind limb volume, Mean", "setting": "[18]", "value": 1.54, "unit": "mL"}, {"measurement": "Left hind limb volume", "setting": "[18]", "value": "1.33 mL and 1.56 mL and 1.61 mL and 1.58 mL and 1.62 mL"}]}
